According to EP4763839A1 (Pamplona Therapeutics (Shenzhen) Co., Ltd., priority 2023, dated 2025):

How the values were obtained:
IL-6 = experiment: Inhibition of R848-induced IL-6 release in human PBMCs, IL-6 ELISA; type: cell-based; conditions: PBMC, compound 24 hours, then R848 10 µg/mL 5 hours
Experimental: Example 3: Detection of inhibition of R848-induced IL-6 release
Cryopreserved human PBMCs (Milestone® Biotechnologies, PB010C-W) were thawed and resuspended in RPMI-1640 medium (Gibco, 22400-105) supplemented with 10% fetal bovine serum (Gibco, 10099-141), 100 U/mL penicillin, and 100 µg/mL streptomycin (Gibco, 15140122). Subsequently, 190 µL of the PBMC suspension was added to each well of 96-well clear cell culture plates (Corning, 3599) to achieve a density of 1×10^5 cells/well. The cell plates were incubated at 37°C in a 5% CO2 incubator for 30 minutes. Then, 5 µL of diluted compound solution was added to the corresponding cell-seeded wells to achieve final concentrations ranging from 0.046 to 3,000 nM. The final concentration of DMSO was 0.1%. After the compound-treated cell plate was incubated at 37°C in a 5% CO2 incubator for 24 hours, 5 µL of R848 (MCE, HY-13740) was added to achieve a final concentration of 10 µg/mL. The cell plates were incubated again at 37°C in a 5% CO2 incubator for 5 hours, then centrifuged at 1,000 rpm for 1 minute. 100 µL of the cell supernatant from each well was transferred to a new 96-well clear cell culture plate for IL-6 concentration testing.
Interleukin-6 (IL-6) ELISA assay
The IL-6 concentration in the supernatant of R848-induced human PBMCs was determined using a Human IL-6 (interleukin-6) ELISA KIT (4Bio, CHE0009-048). IL-6 standard solutions at different concentrations, ranging from 3.9 to 250 pg/mL, were prepared according to the manufacturer's instructions. 100 µL of each concentration of the IL-6 standard solution and the pre-diluted test cell supernatant samples were added separately to anti-IL-6 antibody-coated and blocked clear 96-well plates, followed by incubation at 37°C for 1.5 hours. According to the product instructions, the plates were washed, 100 µL of biotinylated antibody was added, and the plates were incubated at 37°C for 1 hour. The plates were washed, 100 µL of enzyme conjugate working solution was added. The plates were incubated at 37°C for 30 minutes, and then washed. 100 µL of chromogenic substrate was added, and the plates were incubated at 37°C for 10-20 minutes. The reaction was terminated by adding 100 µL of stop solution. After the reaction, the OD value at 450 nm was measured in absorbance mode using an Envision microplate reader (PerkinElmer). A standard curve was plotted using the corrected OD values of the various concentrations of IL-6 standard solutions. The IL-6 concentration in each cell supernatant was then determined on the basis of the corresponding concentration for the corrected OD value of the test sample on the standard curve. […] Subsequently, the IC50 value of the compound was calculated by performing non-linear curve fitting of concentration versus inhibition rate using GraphPad Prism 9.

IRAK4 [1] = molecular target: T1, IRAK4 (Homo sapiens, UniProt Q9NWZ3); experiment: Degradation of IRAK4 in THP1 cells, Western blot; type: cell-based; parameters: Degradation of IRAK4 in THP1 by compound; host or cells: THP-1; conditions: THP-1 cells, 24 hours of incubation
T1 sequence (Q9NWZ3 1-460): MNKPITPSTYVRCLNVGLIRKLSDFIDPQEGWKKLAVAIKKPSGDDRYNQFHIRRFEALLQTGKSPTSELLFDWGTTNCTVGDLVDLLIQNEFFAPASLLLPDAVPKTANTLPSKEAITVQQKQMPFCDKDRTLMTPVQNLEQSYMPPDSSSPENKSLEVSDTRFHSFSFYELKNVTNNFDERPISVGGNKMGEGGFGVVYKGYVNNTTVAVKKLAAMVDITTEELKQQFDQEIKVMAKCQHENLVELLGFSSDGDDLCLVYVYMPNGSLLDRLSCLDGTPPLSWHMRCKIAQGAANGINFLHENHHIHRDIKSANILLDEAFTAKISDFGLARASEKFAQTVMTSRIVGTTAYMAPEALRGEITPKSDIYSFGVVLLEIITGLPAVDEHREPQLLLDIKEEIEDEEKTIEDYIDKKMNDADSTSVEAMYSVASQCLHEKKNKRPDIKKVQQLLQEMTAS
In short: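 Degradation rate derived from densitometry of IRAK4 bands versus DMSO-treated controls. Read-out: anti-IRAK4 immunoblot (10% gel, 40 μg total protein per lane, BCA-normalised) of lysates from THP1 cells incubated with compound for 24 h.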

[2] = Pharmacokinetic detection in rats after intravenous injection and oral administration; type: in vivo, Sprague-Dawley (SD) rats; conditions: rat
Experimental: Example 4. Pharmacokinetic detection
This study was designed to investigate the pharmacokinetic properties of the compounds in rats following intravenous injection and oral administration.
Experimental protocol: Six healthy male Sprague-Dawley (SD) rats were used for each compound, randomly divided into two groups of three animals each, with body weights ranging from 180-220 g. The rats were fasted overnight (10-14 hours) prior to administration, with free access to water, and food was restored 4 hours after administration. The compounds were formulated in a vehicle consisting of 5% DMSO + 10% solutol + 85% physiological saline (w/v). […] For A170, A177, and A180, the intravenous injection group received a dose of 1 mg/kg with an administration volume of 1 mL/kg, and the oral administration group received a dose of 5 mg/kg with an administration volume of 5 mL/kg. Blank blood samples were collected prior to administration. After administration, 0.2 mL of blood was collected from the jugular vein or other suitable methods at predetermined time points (0.083 h, 0.25 h, 0.5 h, 1 h, 2 h, 4 h, 8 h, 24 h) into EDTA-K2 anticoagulant tubes, and plasma was separated by centrifugation at 6800 g for 6 minutes. After the experiment, the concentration of the compound in plasma was quantitatively detected using liquid chromatography-tandem mass spectrometry (LCMS/MS). Pharmacokinetic parameters were calculated on the basis of the plasma concentration data at different time points using Phoenix WinNonlin version 8.3.5.

IRAK4 [3] = molecular target: T1, IRAK4; conditions: Phase I clinical studies in hidradenitis suppurativa and atopic dermatitis; cited from earlier work
[4] = in vivo, oral administration, 10 mg/kg

SMILES	IC50 (IL-6) [nM]	DC50 (IRAK4 [1]; IRAK4 protein by Western blot, read-out: DC50) [nM]	Dmax (IRAK4 [1]; maximum degradation rate, read-out: Dmax) [%]	AUC [2, 4] [ng·h/mL]	Cmax [2, 4] [ng/mL]	half-life [2, 4] [min]	F ([2]; oral 10 mg/kg, intravenous 2 mg/kg) [%]	safety and tolerability (IRAK4 [3])
Cn1c(=O)n(C2CCC(=O)NC2=O)c2cccc(N3CCC(CN4CCN(c5ccc(-n6cc(NC(=O)c7cccc(C(F)(F)F)n7)c(C(N)=O)n6)cc5)CC4)CC3)c21 (centres unmarked) [Compound A178]	< 10	< 100	> 60	6560	593	900	30	
Cn1c(=O)n(C2CCC(=O)NC2=O)c2cccc(C#CCOC3CCN(C[C@H]4CC[C@H](n5cc(NC(=O)c6cnn7ccc(N8C[C@H]9C[C@@H]8CO9)nc67)c(C(F)F)n5)CC4)CC3)c21 (some centres unmarked) [KT-474]								favorable safety and tolerability
